Literature values in US12329853B2, “Compositions and methods for treating ocular diseases” (OCULAR THERAPEUTIX, INC., priority 2020, dated 2025).

Experiments:
[1] = organic solvents typically employed for fabrication of microspheres using solvent evaporation
FP prostanoid receptor = FP prostanoid receptor (Homo sapiens, UniProt P43088)
Sequence of FP prostanoid receptor (P43088 whole entry): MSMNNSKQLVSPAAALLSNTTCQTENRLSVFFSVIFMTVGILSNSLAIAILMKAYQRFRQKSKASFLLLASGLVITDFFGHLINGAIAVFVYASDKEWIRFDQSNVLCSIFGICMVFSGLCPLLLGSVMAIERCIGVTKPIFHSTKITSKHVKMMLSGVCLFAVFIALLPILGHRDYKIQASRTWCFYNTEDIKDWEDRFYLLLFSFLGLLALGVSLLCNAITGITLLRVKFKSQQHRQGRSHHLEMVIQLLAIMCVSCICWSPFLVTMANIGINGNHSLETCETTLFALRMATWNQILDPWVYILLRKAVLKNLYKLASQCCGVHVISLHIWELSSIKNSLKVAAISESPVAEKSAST

Row | Solubility in organic solvents [1] | Compound | Selectivity for the FP prostanoid receptor compared to latanoprost (FP prostanoid receptor) | Potency compared to latanoprost (FP prostanoid receptor; FP prostanoid receptor)
1 | readily soluble | CC(C)OC(=O)CCC/C=C\C[C@@H]1[C@@H](CC[C@@H](O)CCc2ccccc2)[C@H](O)C[C@@H]1O [Latanoprost] |  | 
2 |  | O=C(O)CCC/C=C\C[C@@H]1[C@@H](/C=C/[C@@H](O)COc2cccc(C(F)(F)F)c2)[C@H](O)C[C@@H]1O [free acid of travoprost] | greater selectivity | higher potency
